Values joined by “and” are separate entries in the source; they are usually repeats but may differ in a detail not shown here. Equal entries are not always repeated.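 Where inhibition never reached the appropriate level, the endpoint shown equals the highest concentration tested. Otherwise, values were interpolated linearly from a five-concentration, 48-hour dose response in 96-well plates. Here, GI50 denotes the concentration required for 50% inhibition of growth. TGI denotes the concentration required for complete inhibition of growth.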
Tests used:
Experiment in all cases: NCI anticancer screen, dose series, 48 h
MALME-3M melanoma = test system: MALME-3M melanoma
KM12 colon = test system: KM12 colon
UO-31 renal = test system: UO-31 renal
DU-145 prostate = test system: DU-145 prostate
SK-MEL-28 melanoma = test system: SK-MEL-28 melanoma
HS 578T breast = test system: HS 578T breast
UACC-62 melanoma = test system: UACC-62 melanoma
MDA-MB-435 = test system: MDA-MB-435
T-47D breast = test system: T-47D breast
PC-3 prostate = test system: PC-3 prostate

Row | SMILES | TGI (MALME-3M melanoma) | TGI (KM12 colon) | TGI (UO-31 renal) | TGI (DU-145 prostate) | TGI (SK-MEL-28 melanoma) | TGI (HS 578T breast) | TGI (UACC-62 melanoma) | TGI (MDA-MB-435) | TGI (T-47D breast) | TGI (PC-3 prostate) | GI50 (MALME-3M melanoma) | GI50 (KM12 colon) | GI50 (UO-31 renal) | GI50 (DU-145 prostate) | GI50 (SK-MEL-28 melanoma) | GI50 (HS 578T breast) | GI50 (UACC-62 melanoma) | GI50 (MDA-MB-435) | GI50 (T-47D breast) | GI50 (PC-3 prostate)
1 | O=c1cccc(Cl)[nH]1 | > 100 µM | > 100 µM | > 100 µM | > 100 µM | > 100 µM | > 100 µM | > 100 µM | > 100 µM | > 100 µM | > 100 µM |  |  |  |  |  |  |  |  |  | 
2 | CC1(C)N=C(N)N=C(N)N1c1cccc(CCc2ccccc2)c1 | > 68.8 µM | 14.6 µM | > 100 µM | > 100 µM | > 68.9 µM | > 100 µM | 20.4 µM | 35.4 µM | > 100 µM | > 59 µM | 1.04 µM | 0.456 µM | > 100 µM | 0.552 µM | 1.04 µM | 22.4 µM | 0.49 µM | 0.154 µM | 2.95 µM | 0.11 µM
3 | Nn1c(-c2ccc(Cl)cc2)nc2c(-c3ccc(Cl)cc3)nc3ccc(Cl)cc3c2c1=O | 65.4 µM | > 100 µM | > 100 µM | > 100 µM | > 100 µM | 85 µM | > 100 µM | > 100 µM | 67.2 µM | > 100 µM | 21.3 µM | > 100 µM | 16.9 µM | 4.96 µM | 49.6 µM | 12.1 µM | 32.2 µM | > 100 µM | 9.3 µM | 60.7 µM
4 | CNC(=O)OCc1nc(SC)n(C)c1COC(=O)NC | 253 µM | 380 µM | 444 µM | 379 µM | 380 µM | 438 µM | 103 µM | 327 µM | 554 µM | 484 µM |  |  |  |  |  |  |  |  |  | 
5 | Clc1ccc(CN2CCCN(Cc3ccc(Cl)cc3)C2c2cc3ccccc3c3ccccc23)cc1 | 37.6 µM | > 100 µM | > 100 µM | > 100 µM | 54.5 µM | > 100 µM | 36.7 µM | > 100 µM | > 100 µM | > 100 µM |  |  |  |  |  |  |  |  |  | 
6 | CCn1c(-c2nonc2N)nc2cnc(Oc3cccc(NC(=O)c4ccc(N(C)C)cc4)c3)cc21 | > 25 µM | > 25 µM | > 18.8 µM | > 25 µM | > 25 µM | > 25 µM | > 25 µM | > 25 µM | > 25 µM | > 25 µM | > 25 µM | > 25 µM | 0.0235 µM | > 21.7 µM | > 25 µM | 0.0623 µM | > 25 µM | > 25 µM | 9.62 µM | 12.4 µM
7 | COc1ccccc1C(=O)N(Cc1ccccc1)c1ccc(Cl)c(C(=O)OC(C)C)c1 | 85.9 µM | > 81 µM | 54.1 µM | > 100 µM | > 100 µM | > 100 µM | > 100 µM | > 100 µM | 78.7 µM | 75.3 µM |  |  |  |  |  |  |  |  |  | 
8 | CC(=O)OCC1OC(n2c3c(cc(C#N)c2=S)CCCC3)C(OC(C)=O)C(OC(C)=O)C1OC(C)=O (stereo not given) | > 100 µM | > 100 µM | > 100 µM | > 100 µM | > 100 µM | > 100 µM | > 100 µM | > 100 µM | > 100 µM | > 100 µM |  | 31.7 µM and > 100 µM |  |  |  | > 100 µM and 25.5 µM | > 100 µM and 26.5 µM |  | > 100 µM | 36.6 µM and > 100 µM

Reference: PubChem BioAssay (NCI)
